# According to patent publication EP1566447A1, “Glimepiride- and insulin-induced glycosylphosphatidylinositol-specific phospholipase C regulation” (priority 2004, dated 2005):
# “Also recorded” adds a separate entry of the source.
# How the values were obtained:
# [1] = tested on: caveolin-1; assay: dissociation of signaling proteins from caveolin (caveolin-1 immunoprecipitates); assay type: cell-based, rat
# Method: Solubilized DIGs (see above, 5-20 µg protein) were precleared by incubation with protein A/G-Sepharose and subsequent centrifugation (10,000xg, 5 min). The supernatant was incubated with anti-caveolin-1 antibodies (1:1000) preadsorbed on protein A/G-Sepharose in 1 ml of 10 mM Tris/HCl (pH 7.4), 150 mM NaCl, 1 % TX-100 for 1 h at 4°C. The immune complexes were washed twice with the same buffer and then twice with buffer lacking TX-1 00 and finally subjected to SDS-PAGE performed in the absence of β-mercaptoethanol. The recovery of immunoprecipitated caveolin was normalized by homologous immunoblotting with anti-caveolin antibodies of the same blot following stripping of the membrane.
# Polypeptides separated by SDS-PAGE were transferred to polyvinylidene difluoride membranes using the semidry procedure as described in "Müller, G. et al., (2001) Mol. Cell. Biol. 21: 4553-4567". Washed membranes were incubated anti-caveolin-1 (1:2000), anti-pp59^Lyn (1:1250), anti-aP (1:500), anti-5'-Nuc (1:750) and anti-IRS-1 (1:2000) antibodies for 4 h at 15°C. Washed membranes were incubated with horseradish peroxidase-coupled secondary goat anti-mouse (1:2000) or goat anti-rabbit IgG (1:4000) antibodies. Labeled proteins were visualized by enhanced chemiluminescence.
# Of signaling proteins from caveolin. […]
# [2] = tested on: bacterial, trypanosomal, serum and rat adipocyte GPI-PLC/D; assay: (G)PI-PLC/D of various origin, results stated collectively; assay type: biochemical
# Method: GPI-PLD (rat serum) was assayed according to "Hari et al. (1997) Biochim. Biophys. Acta 1355: 293-302" by incubation with 10 µl of human placental aP solution (100 U/ml in 10 mM Hepes/NaOH, pH 7.0, 150 mM NaCl) in 100 µl of 200 mM Tris/maleate (pH 7.0) and 1 % Nonidet P-40 for 10 min at 37°C and subsequent termination of the reaction by addition of 0.4 ml of ice-cold stop buffer (10 mM Hepes/NaOH, pH 7.0, 150 mM NaCl, 0.1 mM MgCl2 and 0.01 mM zinc acetate). GPI-PLC (T. brucei) was assayed as described in "Mensa-Wilmot et al. (1995) Methods Enzymol. 250: 641-655" by incubation with 5 µl of human placental aP solution (see above) in 50 µl of 50 mM Tris/HCl (pH 8.0), 0.25 % Nonidet P-40 and 5 mM EDTA for 30 min at 37°C and subsequent termination of the reaction by addition of 0.45 ml of stop buffer. […]
# Pelleted hc/IcDIGs (10-50 µg protein) or (G)PI-PLC reaction mixtures (0.5 ml) were separated into amphiphilic and hydrophilic proteins using partitioning between TX-114-enriched and depleted phases according to "Bordier, C., (1981) J. Biol, Chem. 272: 2542-2550" by suspending in 1 ml of ice-cold TX-114 (1 %), 25 mM Tris/HCl (pH 7.4), 144 mM NaCl or mixing with 0.5 ml of ice-cold TX-114 (2 %), respectively. […] After re-extraction of the lower TX-114-enriched phase, aliquots of the pooled upper TX-114-depleted phase were measured for 5'-Nuc, aP and AChE activity or precipitated (15 % polyethylene glycol 4000) for SDS-PAGE analysis.
# GPI-2350 inhibits (G)PI-PLC/D of various origin with high potency and selectivity: The effect of GPI-2350 on (purified or crude) B. cereus PI-PLC, T. brucei GPI-PLC and rat serum GPI-PLD was monitored by their incubation with partially purified solubilized GPI proteins under appropriate conditions (low or high detergent conc.) in the presence of increasing concentrations of GPI-2350. […]
compound,measurement,setting,value
"CCCCCCCCCCCCP1(=O)O[C@@H]2[C@H](O)[C@@H](O)[C@H](O)[C@@H](O)[C@@H]2O1 (mixture of isomers) [GPI-2350, myo-inositol-1,2-cyclo-dodecylphosphonic acid]",effect on induced dissociation of pp59^Lyn and Gce1 from caveolin,"[1]; 50 µM, Fig. 6 Panel A",almost complete blockade; also recorded: completely abrogated
same,IC50,"[1]; abrogation of insulin- and glimepiride-induced losses, Fig. 6 Panel B",5 to 10 µM
same,blocked GPI-PLC/D by,"[2]; 50 µM, one range for all four enzymes, Fig. 3",60 to 95%
same,reversal of half-maximal inhibition upon 10-fold dilution,"[2]; bacterial and trypanosomal (G)PI-PLC, dilution with excess of fresh GPI-protein substrate",completely reversed
same,IC50,"[2]; bacterial, trypanosome and serum GPI-PLC and GPI-PLD, one range for all",0.2 to 10 µM
